Measurements: publication PMC6988309, “Preclinical efficacy for a novel tyrosine kinase inhibitor, ArQule 531 against acute myeloid leukemia” (Journal of Hematology & Oncology, 2020)

Key:
[1] = parameters: method as in doi:10.1182/blood-2018-99-116338; details: dose escalation study; cited from earlier work
[2] = system: MOLM-13, MV4-11, and OCI-AML3 cell lines; assay: Annexin/PI apoptosis assay 72 h; format: cell-based, human; details: increasing concentrations of ARQ 531 or 50 nM gilteritinib
Description: Cells were treated for 72 h then stained for 20 min in 1X Annexin Binding buffer (BD Biosciences, Franklin Lakes, NJ) containing Annexin V-FITC and Propidium Iodine (Leinco Technologies, Fenton, MO). Live and apoptotic cells were measured using FC 500 flow cytometer and analyzed on Kaluza software (Beckman Coulter, Pasadena, CA).

Ba/F3 FLT3-ITD = assay: MTT proliferation assay 72 h, Ba/F3 FLT3-ITD; format: cell-based, murine; details: Mus musculus, read-out: Estimated absolute µM IC50 and 95% CI
Description: (§3) A total of 5000–30,000 cells from the lines above were treated in a 96-well plate for 72 h. CellTiter 96 Aqueous MTS reagent (Promega, Madison, WI) was added to cells followed by a 3-h incubation at 37 °C, 5% CO2. The absorbance was measured at 490 nm using DTX 880 plate reader and the half maximal inhibitory concentration (IC50) was calculated using GraphPad Prism 7 (GraphPad Software, La Jolla, CA) and SAS/STAT software (SAS v9.4 for Windows, SAS Institute, Inc., Cary, NC). For the MOLM-13 resistant and the Ba/F3-FLT3-ITD/TKD cell lines, cells were treated for 72 h and cell viability was evaluated using MTT assay (Roche Diagnostics. Mannheim. Germany) according to the manufacturer’s instructions.

Ba/F3 FLT3-ITD/D835H = assay: MTT proliferation assay 72 h, Ba/F3 FLT3-ITD/D835H; format: cell-based, murine; details: Mus musculus, BaF3, read-out: Estimated absolute µM IC50 and 95% CI
Description: (§4) For the MOLM-13 resistant and the Ba/F3-FLT3-ITD/TKD cell lines, cells were treated for 72 h and cell viability was evaluated using MTT assay (Roche Diagnostics. Mannheim. Germany) according to the manufacturer’s instructions.

THP-1 = assay: MTS proliferation assay 72 h, THP-1; format: cell-based, human
Description: as §3

[3] = system: MOLM-13 disseminated AML xenograft; assay: MOLM-13 disseminated xenograft, single agent study (NSG mice); format: in vivo
Description: (§1) All experiments were conducted after approval of The Ohio State University Institutional Animal Care and Use Committee. Mice were randomized and enrolled for daily oral gavage (Q.D.P.O) treatment of vehicle or 50 mg/kg ARQ 531. Mice were treated until reaching early removal criteria (ERC) defined as 20% weight loss, lethargy, hind limb paralysis, moribund, anorexia, dehydration, hunched posture, severe diarrhea, breathing difficulties, or any abnormal neurological symptoms.
A total of 10,000 luciferase expressing MOLM-13 cells were engrafted via tail vein injection in NSG mice (The Jackson Laboratory, Bar Harbor, ME) for the single agent ARQ 531 study or NCG mice (Charles River Laboratories, Wilmington, MA) for the ARQ 531 + venetoclax (ARQ + Ven) combination study. For the first single agent ARQ 531 study, mice were treated 7 days post-engraftment. Due to the aggressiveness of the MOLM-13 model, mice were treated 4 days post-engraftment in the ARQ + Ven combination study. In both studies, mice were treated daily via oral gavage with vehicle (10% absolute alcohol, 10% Cremophor-EL, 80% saline) or 50 mg/kg ARQ 531, and 75 mg/kg venetoclax ± 50 mg/kg ARQ 531 for the combination study. Weekly in vivo imaging was performed using In Vivo Imaging System (IVIS) imager (PerkinElmer, Waltham, MA).
Kaplan–Meier survival curve in the MOLM-13 disseminated AML xenograft model. […]

[4] = system: primary AML patient blasts; assay: Colony-Forming Unit-Granulocyte and Macrophage (CFU-GM) assay; format: cell-based, human; details: 3 µM, colonies counted after 14 days
Description: Primary AML patient samples were treated and plated at 5000–10,000 cells in 1.1 ml methylcellulose supplemented with recombinant human stem cell factor, interleukin 3, granulocyte colony-stimulating factor, and granulocyte-macrophage colony-stimulating factor (MethoCult™, […] Technologies, Vancouver, Canada) per dish in duplicates. Colonies were counted after 14 days when using primary patient samples.
(§2) MTS proliferation assay using a human stroma co-culture assay. […] FLT3 wild-type (WT) samples (red) and FLT3-ITD (black). Colony-Forming Unit-Granulocyte and Macrophage (CFU-GM) assay. […] Number of colonies were counted after 14 days (c)

Ba/F3 FLT3-D835Y = assay: MTT proliferation assay 72 h, Ba/F3 FLT3-D835Y; format: cell-based, murine; details: Mus musculus, BaF3, read-out: Estimated absolute µM IC50 and 95% CI
Description: as §4

FLT3-ITD = FLT3-ITD (Homo sapiens, UniProt P36888, ITD); assay: Biochemical assay of recombinant kinases, FLT3-ITD; details: recombinant kinase domain, 10 μmol/L ATP
Description: Biochemical inhibition of FLT3-WT and FLT3-ITD fusion was measured using recombinant protein constructs of kinase domains (Reaction Biology).

[5] = system: primary AML patient blasts; assay: MTS proliferation assay, primary AML blasts co-cultured with HS5-GFP stroma cells, 96 h; format: cell-based, human; details: HS5-GFP co-culture
From the text: For in vitro cytotoxicity experiments (Fig. 1b–d), repeated measures models were used to account for correlations among observations from the same experiment. The percentage of live cells was compared at each concentration with DMSO. […] Mixed effects models were used in experiments described in Additional file 1: Table S4 and Fig. 2c to account for correlations within a single patient. Outcome data were first log-transformed to stabilize variances and reduce skewness. For survival experiments (Figs. 5 and 6a), Kaplan-Meier curves were produced and group differences for Fig. 5 and assessed by the log-rank test and for Fig. 6a, p values have been adjusted for multiple comparisons using Holm’s procedure. p values from experiments with multiple endpoints were adjusted for multiple comparisons using either Holm’s procedure or Dunnett’s test (all comparisons against vehicle/DMSO).
as §2

[6] = Toxicity in xenograft mouse studies; format: in vivo; details: xenograft mice, 50 mg/kg daily oral
Description: as §1

MV4-11 = assay: MTS proliferation assay 72 h, MV4-11; format: cell-based; details: Homo sapiens, MV4-11, read-out: Estimated absolute µM IC50 (95% CI), 4-parameter logistic model
Description: A total of 5000–30,000 cells from the lines above were treated in a 96-well plate for 72 h. CellTiter 96 Aqueous MTS reagent (Promega, Madison, WI) was added to cells followed by a 3-h incubation at 37 °C, 5% CO2. The absorbance was measured at 490 nm using DTX 880 plate reader and the half maximal inhibitory concentration (IC50) was calculated using GraphPad Prism 7 (GraphPad Software, La Jolla, CA) and SAS/STAT software (SAS v9.4 for Windows, SAS Institute, Inc., Cary, NC).

BTK phosphorylation = assay: Immunoblot of phospho-BTK; format: cell-based, human; details: AML cell lines; MOLM-13 1 µM for 1 hour (Figure S2)
Description: Cells were washed in ice-cold PBS then lysed in 1X Cell Lysis Buffer (CST) supplemented with proteinase and phosphatase inhibitors cocktail (Roche). Pierce BCA Protein Assay was used to quantify the protein lysates (Thermo Fisher Scientific, Waltham, MA). For Immunoblotting, 15–25 μg of protein lysate was prepared in 2X or 4X Laemmeli’s sample buffer (Bio-Rad Laboratories, Hercules, CA) and heated for 5 min at 100 °C. Samples were separated on 8% sodium dodecyl sulfate polyacrylamide gel and transferred onto nitrocellulose membrane (Bio-Rad Laboratories, Hercules, CA). The membranes were blocked for 1 h in Blocker BLOTTO Blocking Buffer (Thermo Fisher Scientific, Waltham, MA) or 5% non-fat milk followed by overnight incubation at 4 °C with primary antibody followed by HRP-conjugated secondary antibodies and visualized with chemiluminescent Pierce ECL Substrate (Thermo Fisher Scientific, Waltham, MA) on X-ray films.
Immunoblot analysis for MOLM-13, MV4-11, and OCI-AML3 AML cell lines (representative of 2-3 independent blots). […] Twenty to 25 μg of total protein lysate was loaded per lane.

FLT3-ITD, sequence (P36888 564-993, stated change not applied): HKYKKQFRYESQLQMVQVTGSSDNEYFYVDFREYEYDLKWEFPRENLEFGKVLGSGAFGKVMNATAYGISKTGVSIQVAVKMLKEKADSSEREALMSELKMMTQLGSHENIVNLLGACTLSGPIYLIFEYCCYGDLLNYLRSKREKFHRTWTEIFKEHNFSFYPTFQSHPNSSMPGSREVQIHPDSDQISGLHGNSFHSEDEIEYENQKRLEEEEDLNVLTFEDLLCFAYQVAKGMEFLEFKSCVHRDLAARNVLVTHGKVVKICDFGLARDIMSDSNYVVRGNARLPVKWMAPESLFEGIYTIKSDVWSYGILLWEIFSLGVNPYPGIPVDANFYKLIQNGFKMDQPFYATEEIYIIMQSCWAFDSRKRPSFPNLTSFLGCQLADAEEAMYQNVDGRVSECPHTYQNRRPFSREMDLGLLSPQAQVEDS

O=C(c1ccc(Oc2ccccc2)cc1Cl)c1c[nH]c2ncnc(N[C@@H]3CC[C@@H](CO)OC3)c12 [ARQ 531]
treatment emergent adverse events [1]: no reported treatment emergent adverse events
apoptosis / cytotoxicity (Annexin/PI) [2]: induced cell apoptosis
IC50 (Ba/F3 FLT3-ITD): 1.21 µM
IC50 (Ba/F3 FLT3-ITD/D835H): 3.76 µM
resistant to concentrations up to (THP-1): > 10 µM
Estimated absolute µM IC50 (95% CI) (THP-1; 4-parameter logistic model): Unable to calculate IC50
median survival ([3]; 50 mg/kg Q.D.P.O from 7 days post-engraftment until ERC, vehicle 21 days): 23 days
median survival advantage vs vehicle ([3]; 50 mg/kg Q.D.P.O, log-rank p value = 0.002): 2 days
Estimated ratio of colony formation vs. DMSO [4]: 0.45
IC50 (Ba/F3 FLT3-D835Y): 6.11 µM
IC50 (FLT3-ITD): 330 nM
Estimated Ratio of proliferation versus vehicle (DMSO) ([5]; 0.005 µM): 0.91
Estimated Ratio of proliferation versus vehicle (DMSO) ([5]; 0.01 µM): 0.95
Estimated Ratio of proliferation versus vehicle (DMSO) ([5]; 0.05 µM): 0.92
Estimated Ratio of proliferation versus vehicle (DMSO) ([5]; 0.1 µM): 0.9
Estimated Ratio of proliferation versus vehicle (DMSO) ([5]; 0.5 µM): 0.69
Estimated Ratio of proliferation versus vehicle (DMSO) ([5]; 1 µM): 0.58
Estimated Ratio of proliferation versus vehicle (DMSO) ([5]; 5 µM): 0.34
Estimated Ratio of proliferation versus vehicle (DMSO) ([5]; 10 µM): 0.28
Estimated Ratio of proliferation versus vehicle (DMSO) ([5]; 50 µM): 0.09
toxicity [6]: lack of toxicity
IC50 (MV4-11): 1.45 µM
effect on BTK phosphorylation (BTK phosphorylation): potently inhibits BTK
